{"source": "patent US20050197350A1", "about": "“Novel quinoline, tetrahydroquinazoline, and pyrimidine derivatives and methods of treatment related to the use thereof” (TAISHO PHARMACEUTICAL CO., LTD., priority 2003, published 2005)"}
{"tested_on": "MCH receptors", "assay": "MCH receptor activity class (method not given)", "details": "class by percent of control at 10^-7 M or IC50"}
{"smiles": "CN(C)c1nc(N[C@H]2CC[C@@H](CNC(=O)/C=C/c3ccccc3Cl)CC2)nc2c1CCCC2", "note": "[compound 669]", "class": "3 (Class 3 The value of percent of control at 10^−7 M was more than 60% or the value of IC50 was more than 200 nM.)"}
{"smiles": "Cc1ccc(Cl)c(C(=O)NC[C@H]2CC[C@@H](Nc3nc4c(c(N(C)C)n3)CCCC4)CC2)c1F", "note": "[compound 670]", "class": "3 (Class 3 The value of percent of control at 10^−7 M was more than 60% or the value of IC50 was more than 200 nM.)"}
{"smiles": "CN(C)c1nc(N[C@H]2CC[C@@H](CNC(=O)c3c(F)ccc(F)c3Cl)CC2)nc2c1CCCC2", "note": "[compound 671]", "class": "3 (Class 3 The value of percent of control at 10^−7 M was more than 60% or the value of IC50 was more than 200 nM.)"}
{"smiles": "Cc1cccc(C(=O)NC[C@H]2CC[C@@H](Nc3nc4c(c(N(C)C)n3)CCCC4)CC2)c1C", "note": "[compound 672]", "class": "3 (Class 3 The value of percent of control at 10^−7 M was more than 60% or the value of IC50 was more than 200 nM.)"}
{"smiles": "CN(C)c1cc(N[C@H]2CC[C@@H](NC(=O)c3ccc(Br)s3)CC2)nc2ccccc12", "note": "[compound 673]", "class": "2 (Class 2: The value of percent of control at 10^−7 M was from 40% to 60% or the value of IC′50 was from 50 nM to 200 nM.)"}
{"smiles": "CN(C)c1cc(N[C@H]2CC[C@@H](NC(=O)Cc3c(Cl)ccc(Cl)c3Cl)CC2)nc2ccccc12", "note": "[compound 674, N-(cis-4-{[4-(dimethylamino)quinolin-2-yl]amino}cyclohexyl)-2-(2,3,6-trichlorophenyl)acetamide]", "class": "3 (Class 3 The value of percent of control at 10^−7 M was more than 60% or the value of IC50 was more than 200 nM.)"}
{"smiles": "CN(C)c1cc(N[C@H]2CC[C@@H](NC(=O)Cc3ccc(F)cc3Cl)CC2)nc2ccccc12", "note": "[compound 675]", "class": "3 (Class 3 The value of percent of control at 10^−7 M was more than 60% or the value of IC50 was more than 200 nM.)"}
{"smiles": "CN(C)c1cc(N[C@H]2CC[C@@H](NC(=O)c3ccc(-c4ccc(Cl)cc4[N+](=O)[O-])o3)CC2)nc2ccccc12", "note": "[compound 676, 5-(4-chloro-2-nitrophenyl)-N-(cis-4-{[4-(dimethylamino)quinolin-2-yl]amino}cyclohexyl)-2-furamide]", "class": "2 (Class 2: The value of percent of control at 10^−7 M was from 40% to 60% or the value of IC′50 was from 50 nM to 200 nM.)"}
{"smiles": "CN(C)c1cc(N[C@H]2CC[C@@H](NC(=O)c3ccc(Cl)s3)CC2)nc2ccccc12", "note": "[compound 677]", "class": "2 (Class 2: The value of percent of control at 10^−7 M was from 40% to 60% or the value of IC′50 was from 50 nM to 200 nM.)"}
{"smiles": "CN(C)c1cc(N[C@H]2CC[C@@H](NC(=O)CCc3ccccc3O)CC2)nc2ccccc12", "note": "[compound 679]", "class": "3 (Class 3 The value of percent of control at 10^−7 M was more than 60% or the value of IC50 was more than 200 nM.)"}
{"smiles": "CN(C)c1cc(N[C@H]2CC[C@@H](NC(=O)c3ccc(I)o3)CC2)nc2ccccc12", "note": "[compound 680, N-(cis-4-{[4-(dimethylamino)quinolin-2-yl]amino}cyclohexyl)-5-iodo-2-furamide]", "class": "1 (Class 1: The value of percent of control at 10^−7 M was less than 40% or the value of IC50 was less than 50 nM.)"}
{"smiles": "CN(C)c1cc(N[C@H]2CC[C@@H](NC(=O)Cc3ccccc3I)CC2)nc2ccccc12", "note": "[compound 681, N-(cis-4-{[4-(dimethylamino)quinolin-2-yl]amino}cyclohexyl)-2-(2-iodophenyl)acetamide]", "class": "2 (Class 2: The value of percent of control at 10^−7 M was from 40% to 60% or the value of IC′50 was from 50 nM to 200 nM.)"}
{"smiles": "COc1ccc2[nH]c(C)c(CC(=O)N[C@H]3CC[C@@H](Nc4cc(N(C)C)c5ccccc5n4)CC3)c2c1", "note": "[compound 682, N-(cis-4-{[4-(dimethylamino)quinolin-2-yl]amino}cyclohexyl)-2-(5-methoxy-2-methyl-1H-indol-3-yl)acetamide]", "class": "2 (Class 2: The value of percent of control at 10^−7 M was from 40% to 60% or the value of IC′50 was from 50 nM to 200 nM.)"}
{"smiles": "CN(C)c1cc(N[C@H]2CC[C@@H](NC(=O)/C=C/c3cccc([N+](=O)[O-])c3)CC2)nc2ccccc12", "note": "[compound 683]", "class": "2 (Class 2: The value of percent of control at 10^−7 M was from 40% to 60% or the value of IC′50 was from 50 nM to 200 nM.)"}
{"smiles": "CN(C)c1cc(N[C@H]2CC[C@@H](NC(=O)c3ccccc3Cc3ccccc3)CC2)nc2ccccc12", "note": "[compound 685]", "class": "3 (Class 3 The value of percent of control at 10^−7 M was more than 60% or the value of IC50 was more than 200 nM.)"}
{"smiles": "CN(C)c1cc(N[C@H]2CC[C@@H](NC(=O)C(c3ccc(Cl)cc3)c3ccc(Cl)cc3)CC2)nc2ccccc12", "note": "[compound 686]", "class": "2 (Class 2: The value of percent of control at 10^−7 M was from 40% to 60% or the value of IC′50 was from 50 nM to 200 nM.)"}
{"smiles": "Cc1ccc(-c2ccc(C(=O)N[C@H]3CC[C@@H](Nc4cc(N(C)C)c5ccccc5n4)CC3)o2)c([N+](=O)[O-])c1", "note": "[compound 687]", "class": "3 (Class 3 The value of percent of control at 10^−7 M was more than 60% or the value of IC50 was more than 200 nM.)"}
{"smiles": "CN(C)c1cc(N[C@H]2CC[C@@H](NC(=O)c3ccc([N+](=O)[O-])s3)CC2)nc2ccccc12", "note": "[compound 688, N-(cis-4-{[4-(dimethylamino)quinolin-2-yl]amino}cyclohexyl)-5-nitrothiophene-2-carboxamide]", "class": "1 (Class 1: The value of percent of control at 10^−7 M was less than 40% or the value of IC50 was less than 50 nM.)"}
{"smiles": "Cc1cc(C(=O)N[C@H]2CC[C@@H](Nc3cc(N(C)C)c4ccccc4n3)CC2)ccc1[N+](=O)[O-]", "note": "[compound 689, N-(cis-4-{[4-(dimethylamino)quinolin-2-yl]amino}cyclohexyl)-3-methyl-4-nitrobenzamide]", "class": "1 (Class 1: The value of percent of control at 10^−7 M was less than 40% or the value of IC50 was less than 50 nM.)"}
{"smiles": "COc1cc(C(=O)N[C@H]2CC[C@@H](Nc3cc(N(C)C)c4ccccc4n3)CC2)ccc1[N+](=O)[O-]", "note": "[compound 690, N-(cis-4-{[4-(dimethylamino)quinolin-2-yl]amino}cyclohexyl)-3-methoxy-4-nitrobenzamide]", "class": "1 (Class 1: The value of percent of control at 10^−7 M was less than 40% or the value of IC50 was less than 50 nM.)"}
{"smiles": "CN(C)c1cc(N[C@H]2CC[C@@H](NC(=O)c3cn(Cc4ccccc4)c4ccccc34)CC2)nc2ccccc12", "note": "[compound 691]", "class": "3 (Class 3 The value of percent of control at 10^−7 M was more than 60% or the value of IC50 was more than 200 nM.)"}
{"smiles": "CC(=O)c1cccc(C(=O)N[C@H]2CC[C@@H](Nc3cc(N(C)C)c4ccccc4n3)CC2)c1", "note": "[compound 692]", "class": "3 (Class 3 The value of percent of control at 10^−7 M was more than 60% or the value of IC50 was more than 200 nM.)"}
{"smiles": "CN(C)c1cc(N[C@H]2CC[C@@H](NC(=O)C3CCCC[C@H]3C(=O)c3ccccc3)CC2)nc2ccccc12", "note": "(stereo partly shown) [compound 693]", "class": "3 (Class 3 The value of percent of control at 10^−7 M was more than 60% or the value of IC50 was more than 200 nM.)"}
{"smiles": "CN(C)c1cc(N[C@H]2CC[C@@H](NC(=O)c3ccc(Br)o3)CC2)nc2ccccc12", "note": "[compound 694, 5-bromo-N-(cis-4-{[4-(dimethylamino)quinolin-2-yl]amino}cyclohexyl)-2-furamide]", "class": "1 (Class 1: The value of percent of control at 10^−7 M was less than 40% or the value of IC50 was less than 50 nM.)"}
{"smiles": "CN(C)c1cc(N[C@H]2CC[C@@H](NC(=O)CCC3CCCCC3)CC2)nc2ccccc12", "note": "[compound 695]", "class": "3 (Class 3 The value of percent of control at 10^−7 M was more than 60% or the value of IC50 was more than 200 nM.)"}
{"smiles": "Cc1ccnc(SCC(=O)N[C@H]2CC[C@@H](Nc3cc(N(C)C)c4ccccc4n3)CC2)n1", "note": "[compound 696]", "class": "3 (Class 3 The value of percent of control at 10^−7 M was more than 60% or the value of IC50 was more than 200 nM.)"}
{"smiles": "CN(C)c1cc(N[C@H]2CC[C@@H](NC(=O)c3ccc(-c4ccc(Cl)cc4)o3)CC2)nc2ccccc12", "note": "[compound 697]", "class": "3 (Class 3 The value of percent of control at 10^−7 M was more than 60% or the value of IC50 was more than 200 nM.)"}
{"smiles": "CN(C)c1cc(N[C@H]2CC[C@@H](NC(=O)CCc3ccc(Cl)c(Cl)c3)CC2)nc2ccccc12", "note": "[compound 698]", "class": "3 (Class 3 The value of percent of control at 10^−7 M was more than 60% or the value of IC50 was more than 200 nM.)"}
{"smiles": "CN(C)c1cc(N[C@H]2CC[C@@H](NC(=O)Cc3ccc(Cl)c(Cl)c3)CC2)nc2ccccc12", "note": "[compound 699]", "class": "3 (Class 3 The value of percent of control at 10^−7 M was more than 60% or the value of IC50 was more than 200 nM.)"}
{"smiles": "COc1cc(CC(=O)N[C@H]2CC[C@@H](Nc3cc(N(C)C)c4ccccc4n3)CC2)cc(OC)c1O", "note": "[compound 700]", "class": "3 (Class 3 The value of percent of control at 10^−7 M was more than 60% or the value of IC50 was more than 200 nM.)"}
{"smiles": "CN(C)c1cc(N[C@H]2CC[C@@H](NC(=O)c3cc(Br)c(Br)s3)CC2)nc2ccccc12", "note": "[compound 701]", "class": "2 (Class 2: The value of percent of control at 10^−7 M was from 40% to 60% or the value of IC′50 was from 50 nM to 200 nM.)"}
{"smiles": "COc1cc(CC(=O)N[C@H]2CC[C@@H](Nc3cc(N(C)C)c4ccccc4n3)CC2)cc(OC)c1", "note": "[compound 702]", "class": "3 (Class 3 The value of percent of control at 10^−7 M was more than 60% or the value of IC50 was more than 200 nM.)"}
{"smiles": "CN(C)c1cc(N[C@H]2CC[C@@H](NC(=O)Cc3cc(C(C)(C)C)c(O)c(C(C)(C)C)c3)CC2)nc2ccccc12", "note": "[compound 703]", "class": "3 (Class 3 The value of percent of control at 10^−7 M was more than 60% or the value of IC50 was more than 200 nM.)"}
{"smiles": "CN(C)c1cccc(C(=O)N[C@H]2CC[C@@H](Nc3cc(N(C)C)c4ccccc4n3)CC2)c1", "note": "[compound 705]", "class": "3 (Class 3 The value of percent of control at 10^−7 M was more than 60% or the value of IC50 was more than 200 nM.)"}
{"smiles": "CN(C)c1cc(N[C@H]2CC[C@@H](NC(=O)c3cc(Br)c(Br)o3)CC2)nc2ccccc12", "note": "[compound 706]", "class": "1 (Class 1: The value of percent of control at 10^−7 M was less than 40% or the value of IC50 was less than 50 nM.)"}
{"smiles": "CN(C)c1cc(N[C@H]2CC[C@@H](NC(=O)CCC(=O)c3ccc(F)cc3)CC2)nc2ccccc12", "note": "[compound 707]", "class": "3 (Class 3 The value of percent of control at 10^−7 M was more than 60% or the value of IC50 was more than 200 nM.)"}
{"smiles": "CN(C)c1cc(N[C@H]2CC[C@@H](NC(=O)[C@H](Cc3cn(Cc4ccccc4)cn3)NC(=O)OC(C)(C)C)CC2)nc2ccccc12", "note": "[compound 709]", "class": "3 (Class 3 The value of percent of control at 10^−7 M was more than 60% or the value of IC50 was more than 200 nM.)"}
